Common to all, as to type: in vivo
The test system of assay [1] is maize plants containing 24DT07 nucleotide sequence. The experiment in a line: Herbicide-resistance effect test of the transgenic corn plants (prop root development). The following applies: comparison of the four 24DT07 genotypes; 8960 g ae/ha. As for the experimental part: (§1) Herbicide resistance effects tests to 2,4-D dimethyl ammonium salt and agroxone of maize plants containing 24DT07 nucleotide sequence, 24DT07 substituted nucleotide sequence, 24DT07 truncated nucleotide sequence, 24DT07 added nucleotide sequence, control nucleotide sequence respectively and wild type maize plants (stages V3-V4) were performed respectively.
(§2) Maize plants containing 24DT07 nucleotide sequence, 24DT07 substituted nucleotide sequence, 24DT07 truncated nucleotide sequence, 24DT07 added nucleotide sequence, control nucleotide sequence respectively and wild type maize plants were taken and spayed with 2,4-D dimethyl ammonium salt (8960 g ae/ha, 16-folds concentration in field), agroxone (8960 g ae/ha, 16-folds concentration in field) and blank solvent (water) respectively. Prop root development was counted 21 days after spaying. Three strains (S1, S2, and S3) of corn plants transfected with 24DT07 nucleotide sequence, two strains (S4 and S5) of corn plants transfected with 24DT07 substituted nucleotide sequence, two strains (S6 and S7) of corn plants transfected with 24DT07 truncated nucleotide sequence, two strains (S8 and S9) of corn plants transfected with 24DT07 added nucleotide sequence, two strains (S10 and S11) of corn plants transfected with control nucleotide sequence and 1 strain of wild type (CK) corn were selected and 10-15 plants from each stain were tested.

The subject of assay [2] is maize plants containing 24DT07 truncated nucleotide sequence. The assay is described as above. To be noted: 8960 g ae/ha sprayed, 21 days after spraying. On the procedure:
as §1, §2

Assay [3] relates to Arabidopsis T1 plants transformed with added 24DT07 nucleotide sequence. The assay can be described thus: Herbicide resistance effect test of transgenic Arabidopsis T1 plants. To be noted: genotype 24DT07-a; for Highly resistant: 560 g ae/ha sprayed (1-fold field concentration), number of plants with growth consistent with blank solvent 7 days after spraying; for Non-resistant: 560 g ae/ha sprayed, number of dead plants 14 days after spraying. From the text: (§3) 24DT07 gene was used to transform Arabidopsis for the first time. At first, T1 transformants were selected from the background of un-transformed seeds, using glufosinate-ammonium selection scheme. About 40000 T1 seeds are screened among which 195 strains of T1 generation positive transformants (PAT gene) were identified, i.e. the transformation efficiency was about 0.5%. Herbicide resistance effect tests to 2,4-D dimethyl ammonium salt and agroxone of Arabidopsis T1 plants transformed with 24DT07 nucleotide sequence, substituted 24DT07 nucleotide sequence, truncated 24DT07 nucleotide sequence, added 24DT07 nucleotide sequence, control nucleotide sequence respectively and wild-type Arabidopsis plants were performed after 18 days of planting.
(§4) Arabidopsis T1 plants transformed with 24DT07 nucleotide sequence, substituted 24DT07 nucleotide sequence, truncated 24DT07 nucleotide sequence, added 24DT07 nucleotide sequence and control nucleotide sequence respectively and wild-type Arabidopsis plants were sprayed with 2,4-D dimethyl ammonium salt (560 g ae/ha, 1-fold concentration in field), agroxone (560 g ae/ha, 1-fold concentration in field) and blank solvent (water). Resistance conditions of the plants were counted 7 days and 14 days after spraying. Plants with growth conditions consistent with blank solvent (water) 7 days after spaying were classified as highly resistant plants; Plants with curly rosette leaves 7 days after spaying were classified as moderately resistant plants; Plants incapable of bolting 14 days after spaying were classified as low-resistant plants and the dead plants 14 days after spaying were classified as non-resistant plants. Because each Arabidopsis T1 plant is an independent transformation event, significant differences of individual T1 responses can be expected under a given dose.

For assay [4], the system named is Arabidopsis T1 plants transformed with substituted 24DT07 nucleotide sequence. Described as above. To be noted: genotype 24DT07-i; for Highly resistant: 560 g ae/ha sprayed (1-fold field concentration), number of plants with growth consistent with blank solvent 7 days after spraying; for Non-resistant: 560 g ae/ha sprayed, number of dead plants 14 days after spraying.
Excerpt: as §3, §4

Assay [5] deals with Arabidopsis T1 plants transformed with truncated 24DT07 nucleotide sequence. Described as above. To be noted: genotype 24DT07-t; for Highly resistant: 560 g ae/ha sprayed (1-fold field concentration), number of plants with growth consistent with blank solvent 7 days after spraying; for Non-resistant: 560 g ae/ha sprayed, number of dead plants 14 days after spraying.
Excerpt: as §3, §4

Assay [6] relates to Arabidopsis T1 plants transformed with 24DT07 nucleotide sequence. The description is as above. To be noted: for differences of resistance levels between Arabidopsis T1 plants transformed with 24DT07, substituted, truncated and added 24DT07 nucleotide sequence: comparison of the four 24DT07 genotypes, 560 g ae/ha; for Highly resistant: 560 g ae/ha sprayed (1-fold field concentration), number of plants with growth consistent with blank solvent 7 days after spraying; for Non-resistant: number of dead plants 14 days after spraying.
Excerpt: as §3, §4

Assay [7] has as its system maize plants containing 24DT07 substituted nucleotide sequence. The assay can be described thus: Herbicide-resistance effect test of the transgenic corn plants (prop root development). To be noted: corn strain S5 (24DT07 substituted); 8960 g ae/ha sprayed; 21 days after spraying. On the procedure: as §1, §2
[8] abbreviates: corn strain S7 (24DT07 truncated).
Setting [9] is: genotype 24DT07, 560 g ae/ha sprayed.

This note sets out measurements from US9464117B2, “Herbicide-resistant proteins, encoding genes, and uses thereof” (Beijing Dabeinong Technology Group Co., Ltd., priority 2012, dated 2016).

As to `CNC.O=C(O)COc1ccc(Cl)cc1Cl` [2,4-D dimethyl ammonium salt], the “differences of resistance levels between corn plants transformed with 24DT07, substituted, truncated and added 24DT07 nucleotide sequence” value in assay [1] is “didn't show significant differences”. Moreover, the “Ratio of the normally developed prop roots” value in assay [2] (corn strain S6 (24DT07 truncated)) came to 92.31%; in assay [2] (setting [8]) it was 93.33%. For the same molecule, the Highly resistant in assay [3] amounted to 17; in assay [4], 18; in assay [5], 16; in assay [6] (genotype 24DT07) it was 20. For the same molecule, the Non-resistant in assay [3], in assay [4], in assay [5] and in assay [6] (setting [9]) was 0 each time. The “differences of resistance levels between Arabidopsis T1 plants transformed with 24DT07, substituted, truncated and added 24DT07 nucleotide sequence” value in assay [6] was “didn't show significant differences”.

Consider `Cc1cc(Cl)ccc1OCC(=O)O` [agroxone], for which the “Ratio of the normally developed prop roots” value turned out to be 92.86% in assay [7] and 91.67% in assay [2] (setting [8]). Moreover, the “differences of resistance levels between corn plants transformed with 24DT07, substituted, truncated and added 24DT07 nucleotide sequence” value in assay [1] is reported as “didn't show significant differences”. For the same molecule, the Highly resistant in assay [3] came out at 15; in assay [4] it was 17; in assay [5] it was 18; in assay [6] (genotype 24DT07), 19. The Non-resistant in assay [3], in assay [4], in assay [5] and in assay [6] (setting [9]) was 0 each time. Besides, in assay [6], the “differences of resistance levels between Arabidopsis T1 plants transformed with 24DT07, substituted, truncated and added 24DT07 nucleotide sequence” value was “didn't show significant differences”. This molecule showed a Moderately resistant in assay [6] (genotype 24DT07, 560 g ae/ha sprayed, number of plants with curly rosette leaves 7 days after spraying) of 3.
